Assay results: US4973587A, “3-arylcarbonyl-1-aminoalkyl-1H-indole-containing antiglaucoma method” (Sterling Drug Inc., priority 1990, dated 1990)

Test system: mouse vas deferens
Assay: mouse vas deferens test (MVD)
Assay type: cell-based
Details: inhibition of contractions in mouse vas deferens preparation in vitro, active at 5.0 μM or less
Text: Med. Assoc. 217, 1392 (1971)]. […] Opth 7, 921-923 (1975); Green and Pederson, Effect of delta-9 Tetrahydrocannabinol on Aqueous Dynamics and Ciliary Body Permeability in the Rabbit Eye., Exptl. Eye Research 15, 499-507 (1973); Colasanti, Craig and Allara, Intraocular Pressure, Ocular Toxicity and Neurotoxicity after Administration of Cannabinol or Cannibigerol, Exptl. Eye Research 39, 252-259 (1984)]. Similarly, synthetic cannabinoids also reduce intraocular pressure [Green, Symunds, Oliver and Elijah, Intraocular Pressure Following Systemic Administration of Cannabinoids, Curr. Eye Research 2, 247-253 (1982); Tiedeman, Shields, Weber, Crow, Coccetto, Harris and Howes, Ophthalmology., 88, 270-277 (1981); Colasanti et al., supra]. Cannabinoid receptor binding sites can be defined as those to which radio-labelled 4-(1,1-dimethylheptyl)-2,3'-dihydroxy-6'alpha-(3-hydroxypropyl)-1',2',3',4',5',6'-hexahydrobiphenyl (CP 55940) binds in a specific and saturable manner, and the binding sites are heterogeneously distributed in the brain [Devane, Dysarz, Johnson, Melvin and Howlett, Determination and Characterization of a Cannabinoid Receptor in Rat Brain, Molecular Pharm. 34, 605-613 (1988)]. Natural and synthetic cannabinoids and representative examples of the compounds of the present invention bind to CP 55940 binding sites. […] It is believed that agonist activity at the cannabinoid receptor mediates the anti-glaucoma actions of cannabinoids, and that agonist activity at this receptor correlates with ocular pressure lowering actions in man.

Row | SMILES | IC50 (Mus musculus) [nM] | IC50 [nM]
1 | COc1ccccc1C(=O)c1c(C)n(CCN2CCOCC2)c2ccccc12 [Example 1R] | 90 | –
2 | CC(CN1CCOCC1)n1cc(C(=O)c2ccccc2F)c2ccccc21 (stereo not shown) [Example 2E] | 2400 | –
3 | N#Cc1ccc(C(=O)c2cn(CCN3CCOCC3)c3ccccc23)c2ccccc12 [Example 7D] | 5 | –
4 | Cc1c(C(=O)c2cccc(F)c2)c2ccccc2n1CCN1CCOCC1 [Example 1U] | 1900 | –
5 | Cc1c(C(=O)c2cccc(N)c2)c2ccccc2n1CCN1CCOCC1 [Example 4A, 2-methyl-3-(3-aminobenzoyl)-1-[2 (4-morpholinyl)ethyl]-1H-indole] | 700 | –
6 | COc1ccc(C(=O)c2c(C)n(CCN3CCOCC3)c3ccccc23)cc1 [Example 1F] | – | 1400
7 | COc1ccc(C(=O)c2c(C)n(CCN3CCOCC3)c3c(OC)cccc23)cc1 [Example 1K] | 260 | –
8 | Cc1c(C(=O)c2cccc3cccnc23)c2ccccc2n1CCN1CCOCC1 [Example 2BB] | 129 | –
9 | Cc1c(C(=O)c2cccc3ccccc23)c2ccccc2n1CCN1CCCCC1 [Example 3A, 2-methyl-3-(1-naphthylcarbonyl)-1-[2-(1-piperidinyl)ethyl]-1H-indole] | 66 | –
10 | COc1ccc(C(=O)c2cn(CCCN3CCOCC3)c3ccc(F)cc23)cc1 [Example 1AX] | > 10000 | –
11 | O=C(c1cccc2cc(Cl)ccc12)c1cn(CCN2CCOCC2)c2ccccc12 [Example 2CE] | 88 | –
12 | Cc1c(C(=O)c2ccc(Cl)cc2)c2ccccc2n1CCN1CCOCC1 [Example 1AG] | 560 | –
13 | CSc1ccc(C(=O)c2c(C)n(CCN3CCOCC3)c3ccccc23)cc1 [Example 1C] | 610 | –
14 | Cc1c(C(=O)c2cccc(O)c2O)c2ccccc2n1CCN1CCOCC1 [Example 5A, 2-methyl-3-(2,3-dihydroxybenzoyl)-1-[2-(4-morpholinyl)ethyl]-1H-indole] | 180 | –
15 | COc1cccc(C(=O)c2c(C)n(CCN3CCOCC3)c3ccccc23)c1 [Example 1AA] | 200 | –
16 | Cc1c(C(=O)c2ccc(Br)cc2)c2ccccc2n1CCN1CCOCC1 [Example 2AR] | 620 | –
17 | Cc1c(C(=O)c2ccc(Cl)cc2Cl)c2ccccc2n1CCN1CCOCC1 [Example 2CF] | 200 | –
18 | Cc1c(C(=O)c2cccc3ccccc23)c2ccccc2n1CCN1CCOCC1C (stereo not shown) [Example 3K] | 30 | –
19 | Cc1c(C(=O)c2ccc3occc3c2)c2ccccc2n1CCN1CCOCC1 [Example 2AA] | 125 | –
20 | O=C(c1ccc2ncccc2c1)c1cn(CCN2CCOCC2)c2ccccc12 [Example 2BF] | 142 | –
21 | Cc1ccccc1C(=O)c1c(C)n(CCN2CCOCC2)c2ccccc12 [Example 2K] | 710 | –
22 | Cc1c(C(=O)c2cnc3ccccc3c2)c2ccccc2n1CCN1CCOCC1 [Example 2BC] | 570 | –
23 | O=C(c1ccccc1F)c1cn(CCN2CCOCC2)c2ccccc12 [Example 2BQ] | 500 | –
24 | Cc1ccc2c(C(=O)c3cccc4ccccc34)cn(CCN3CCOCC3)c2c1 [Example 2AY] | 2 | –
25 | O=C(c1cccc2ccccc12)c1cn(CCN2CCOCC2)c2ccc(Br)cc12 [Example 1BW] | 20 | –
26 | Cc1c(C(=O)c2cccc3ccccc23)c2ccccc2n1CCN1CCOC(C)C1 (stereo not shown) [Example 3E] | 210 | –

Row | SMILES | IC50 (Mus musculus) [nM] | IC50 [nM]
27 | Cc1c(C(=O)c2ccc(-n3ccnc3)c3ccccc23)c2ccccc2n1CCN1CCOCC1 [Example 7B] | 5 | –
28 | O=C(c1ccc(Br)c2ccccc12)c1cn(CCN2CCOCC2)c2ccccc12 [Example 2AW] | 5 | –
29 | COc1ccc(C(=O)c2c(C)n(CCCN3CCOCC3)c3ccccc23)cc1 [Example 1H] | 360 | –
30 | Cc1c(C(=O)c2ccc3ncccc3c2)c2ccccc2n1CCN1CCOCC1 [Example 2AZ] | 102 | –
31 | O=C(c1cccc2ccccc12)c1cn(CCN2CCOCC2)c2ccc(F)cc12 [Example 1CE] | 7 | –
32 | Cc1c(C(=O)c2cccc3c2OCO3)c2ccccc2n1CCN1CCOCC1 [Example 1BJ] | 310 | –
33 | O=C(c1cccc2ccccc12)c1cn(CCCN2CCOCC2)c2ccccc12 [Example 2AX] | 10 | –
34 | COc1ccc2cc(C(=O)c3c(C)n(CCN4CCOCC4)c4ccccc34)ccc2c1 [Example 1AW] | 460 | –
35 | COc1ccc(C(=O)c2c(C)n(CCN3CCOCC3)c3ccccc23)c2ccccc12 [Example 1AV] | 26 | –
36 | COc1ccc(C=CC(=O)c2c(C)n(CCN3CCOCC3)c3ccccc23)cc1 [Example 2BN] | 138 | –
37 | Cc1c(C(=O)C=Cc2cccc3ccccc23)c2ccccc2n1CCN1CCOCC1 [Example 2BO] | 130 | –
38 | COc1cc(OC)cc(C(=O)c2c(C)n(CCN3CCOCC3)c3ccccc23)c1 [Example 1BQ] | 420 | –
39 | COc1cc(C(=O)c2c(C)n(CCN3CCOCC3)c3ccccc23)cc(OC)c1OC [Example 1CB] | 90 | –
40 | Cc1ccc(C(=O)c2c(C)n(CCN3CCOCC3)c3ccccc23)cc1 [Example 1Z] | 440 | –
41 | COc1ccc(C(=O)c2c(C)n(CCN3CCCC3)c3ccccc23)cc1 [Example 1CI] | 240 | –
42 | Cc1c(C(=O)c2cccc3ccoc23)c2ccccc2n1CCN1CCOCC1 [Example 2BI] | 17 | –
43 | O=C(c1ccc2occc2c1)c1cn(CCN2CCOCC2)c2ccccc12 [Example 2BR] | 30 | –
44 | Cc1c(C(=O)c2ccccc2)c2ccccc2n1CCN1CCOCC1 [Example 1AE] | 700 | –
45 | Cc1c(C(=O)c2cccc3cc4ccccc4cc23)c2ccccc2n1CCN1CCOCC1 [Example 1CF] | 60 | –
46 | O=C(c1cn(CCN2CCOCC2)c2ccccc12)C1CCCc2ccccc21 (stereo not shown) [Example 2BP] | 10 | –
47 | Cc1cc(C)cc(C(=O)c2c(C)n(CCN3CCOCC3)c3ccccc23)c1 [Example 2AJ] | 390 | –
48 | CCc1ccc(C(=O)c2c(C)n(CCN3CCOCC3)c3ccccc23)cc1 [Example 1X] | 71 | –
49 | COc1ccc(C(=O)c2c(C)n(C(C)CN3CCOCC3)c3ccccc23)cc1 (stereo not shown) [Example 2G] | 1300 | –
50 | O=C(c1ccccc1)c1cn(CCN2CCOCC2)c2ccccc12 [Example 1CH] | – | 1600
51 | COc1ccc(C(=O)c2c(C)n(CCN3CCCC(O)C3)c3ccccc23)cc1 (stereo not shown) [Example 3B] | > 10000 | –
52 | Cc1c(C(=O)c2cc3ccccc3c3ccccc23)c2ccccc2n1CCN1CCOCC1 [Example 1CG] | 170 | –

Row | SMILES | IC50 (Mus musculus) [nM] | IC50 [nM]
53 | Cc1c(C(=O)c2ccc3cccnc3c2)c2ccccc2n1CCN1CCOCC1 [Example 2BH] | – | 88
54 | Cc1c(C(=O)c2cc3ccc4cccc5ccc(c2)c3c45)c2ccccc2n1CCN1CCOCC1 [Example 2CG] | 40 | –
55 | COCc1ccc(C(=O)c2c(C)n(CCN3CCOCC3)c3ccccc23)cc1 [Example 2BW] | 900 | –
56 | O=C(c1cccc2ccccc12)c1cn(CCN2CCOCC2)c2ccc(O)cc12 [Example 5B, 5-hydroxy-3-(1-naphthylcarbonyl)-1-[2-(4-morpholinyl)ethyl]-1H-indole] | 20 | –
57 | Cc1c(C(=O)c2ccc(Br)c3ccccc23)c2ccccc2n1CCN1CCOCC1 [Example 2AT] | 34 | –
58 | CC(Cn1cc(C(=O)c2cccc3ccccc23)c2ccccc21)N1CCOCC1 (stereo not shown) [Example 1BX] | 60 | –
59 | Cc1c(C(=O)c2cc3ccccc3o2)c2ccccc2n1CCN1CCOCC1 [Example 1P] | 320 | –
60 | Cc1cccc(C)c1C(=O)c1c(C)n(CCN2CCOCC2)c2ccccc12 [Example 1BO] | 1600 | –
61 | Cc1c(C(=O)c2cccc3ccccc23)c2ccccc2n1C(C)CN1CCOCC1 (stereo not shown) [Example 2Y] | 10 | –
62 | Cc1c(C(=O)c2c(F)cccc2F)c2ccccc2n1CCN1CCOCC1 [Example 2AG] | 370 | –
63 | Cc1c(C(=O)c2coc3ccccc23)c2ccccc2n1CCN1CCOCC1 [Example 2N] | 52 | –
64 | Cc1c(C(=O)c2cccc(F)c2)c2ccccc2n1C(C)CN1CCOCC1 (stereo not shown) [Example 2AM] | 860 | –
65 | COc1ccc(C(=O)c2c(C)n(CCN3CCOCC3)c3c(C)cccc23)cc1 [Example 1D] | 178 | –
66 | Cc1c(C(=O)c2ccc3cccnc3c2)c2ccccc2n1CCN1CCOCC1 [Example 2BA] | 93 | –
67 | Cc1ccc(C(=O)c2c(C)n(CCN3CCOCC3)c3ccccc23)c2ccccc12 [Example 2CA] | 9 | –
68 | COc1ccc(C(=O)c2c(C)n(CCN3CCOCC3)c3ccc(F)cc23)cc1 [Example 1E] | 120 | –
69 | Cc1c(C(=O)c2cccc3ccccc23)c2ccccc2n1CCCN1CCOCC1 [Example 1BU] | 111 | –
70 | O=C(c1ccc(-n2ccnc2)c2ccccc12)c1cn(CCN2CCOCC2)c2ccccc12 [Example 7C] | 8 | –
71 | CCN(CC)CCCn1c(C)c(C(=O)c2ccc(OC)cc2)c2ccccc21 [Example 3J] | > 10000 | –
72 | COc1ccc(C(=O)c2cn(CCCN3CCOCC3)c3c(C)cccc23)cc1 [Example 1CD] | 40 | –
73 | Cc1c(C(=O)c2ccc3ccccc3c2)c2ccccc2n1CCN1CCOCC1 [Example 1S] | 50 | –
74 | COc1ccc(C(=O)c2c(C)n(CCN3CCOCC3)c3ccccc23)c(F)c1 [Example 2AD] | 180 | –
75 | O=C(c1ccc2ccccc2c1)c1cn(CCN2CCOCC2)c2ccccc12 [Example 2CJ] | 31 | –
76 | COc1ccc(C(=O)c2c(C)n(CCN3CCOCC3)c3c(F)cccc23)cc1 [Example 1J] | 73 | –
